Data set [1] concerns alkaline phosphatase type VII-S. Description: Hydrolysis by alkaline phosphatase type VII-S. The class given is biochemical, bovine. The note with it: 37° C., 0.5 DEA units in 1.0 ml 0.1M glycine buffer pH 10.4, initial substrate 1.07 mM. The method, then:
(§1) In each of these experiments, free genistein was extracted with a 1:1 mixture of ethyl acetate and hexane, then analyzed by HPLC under the conditions described in example 5.
d) In alkaline phosphatase type VII-S at 37° C., the initial rate of hydrolysis to free genistein was 0.08% per minute.
This enzyme from bovine intestinal mucosa (Sigma cat no. P5521). 0.5 DEA units were dissolved in 1.0 ml of 0.1M glycine buffer pH 10.4, and the initial substrate concentration was 1.07 mM.

Data set [2] is described as follows: Hydrolysis of genistein-7-phosphate to free genistein in human serum. The data set is classed as in vitro ADME. The note with it: 37° C. The method, then: as §1
a) In human serum (Sierra Biologicals) at 37° C., the half-life for hydrolysis to free genistein was about 5 hours.

Data set [3] is described as follows: Hydrolysis of genistein-7-phosphate to free genistein in rat blood. The data set is classed as in vitro ADME. The conditions noted are these: 37° C. The method, then: as §1
c) In rat blood (Sierra Biologicals) at 37° C., the half-life for hydrolysis to free genistein was about 30 minutes.

The target of data set [4] is alkaline phosphatase type XXIV (Homo sapiens, UniProt P05187). Description: Hydrolysis by alkaline phosphatase type XXIV. The data set is classed as biochemical. The note with it: 37° C. The method, then: as §1
alkaline phosphatase type XXIV, sequence (P05187 23-506): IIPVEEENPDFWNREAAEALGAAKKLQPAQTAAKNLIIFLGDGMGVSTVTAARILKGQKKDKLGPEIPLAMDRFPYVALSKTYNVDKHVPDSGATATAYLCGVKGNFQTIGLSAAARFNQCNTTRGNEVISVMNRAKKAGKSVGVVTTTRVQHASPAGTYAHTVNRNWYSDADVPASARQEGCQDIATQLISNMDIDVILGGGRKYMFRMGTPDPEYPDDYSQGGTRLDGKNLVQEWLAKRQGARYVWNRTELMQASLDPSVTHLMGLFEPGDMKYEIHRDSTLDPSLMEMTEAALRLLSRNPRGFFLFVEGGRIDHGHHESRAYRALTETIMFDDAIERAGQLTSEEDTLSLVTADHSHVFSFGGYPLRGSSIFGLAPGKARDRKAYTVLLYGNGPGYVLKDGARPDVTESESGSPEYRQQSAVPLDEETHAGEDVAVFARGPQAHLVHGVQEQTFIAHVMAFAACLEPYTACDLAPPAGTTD
e) In alkaline phosphatase type XXIV at 37° C., the initial rate of hydrolysis to free genistein was 0.05% per minute.

The nature of data set [5]: Hydrolysis of genistein-7-phosphate to free genistein in human blood. The class given is in vitro ADME. The note with it: 37° C. Here is the method:
as §1
b) In human blood (Sierra Biologicals) at 37° C., the half-life for hydrolysis to free genistein was about 6 hours.

Data set [6] can be described thus: Non-enzymatic hydrolysis of genistein esters in aqueous buffer (HPLC). The data set is classed as physicochemical. The note with it: phosphate-buffered saline (0.1 M), pH 7.4, 37°, 10 days. The source says: By way of example, and not of limitation, several embodiments of the inventive subject matter have been prepared and characterized. These examples all fall within the group of pro-compounds where at least one of R7, R6, R5 and R4′ is H2PO4—, and HOOC—(CH2)x-COO— where x=2, 3, or 4. These new phosphate esters and hemiesters are all water soluble and readily hydrolyzed. They are also stable. In aqueous solutions of the exemplified compounds, for example, hydrolysis occurs to the extent of less than 1% per day, when stored at pH 7.4 and 37° C. Dry formulations of the same compounds appear to be indefinitely stable.
HPLC analysis was conducted using a Partisil ODS-3 column (9.5×250 mm), with methanol as the mobile phase, and UV detection at 260 nm.
A solution of genistein-7-phosphate (2.5 mg) in 5 ml of phosphate-buffered saline (0.1 M) at pH 7.4 was incubated at 37° for 10 days.
A solution of genistein-7-hemisuccinate (2.5 mg) in 5 ml of phosphate-buffered saline (0.1 M) at pH 7.4 was incubated at 37° for 10 days.

The conditions of data set [7]: Merck Index descriptions; cited from earlier work.

In general, half-life refers to the time in which the quantity being followed falls by half.

As for `O=c1c(-c2ccc(O)cc2)coc2cc(OP(=O)(O)O)cc(O)c12` [genistein-7-phosphate, Genistein-7-Phosphate], the entries for the “initial rate of hydrolysis to free genistein” value in data set [1] and in data set [4] were 0.08 % per minute and 0.05 % per minute, respectively. In addition, the half-life in data set [2] is roughly 5 h; in data set [3] it was roughly 0.5 h; in data set [5] it was roughly 6 h. Also, the “free genistein found by HPLC after incubation” value in data set [6] is reported as “absence of free genistein”.
On to `O=c1c(-c2ccc(O)cc2)coc2cc(O)cc(O)c12` [genistein], for which, in data set [7], the solubility in water result is “very insoluble”.
Take `O=C(O)CCC(=O)Oc1cc(O)c2c(=O)c(-c3ccc(O)cc3)coc2c1` [genistein-7-hemisuccinate, Genistein-7-Hemisuccinate]: in data set [6], the “conversion of the ester to free genistein” value is given as “about 4%”.

Source of the values: patent publication US6958156B2, “Isoflavone derivatives” (Vyrex Corporation, priority 2000, dated 2005).
